Legend:
Format in all cases: cell-based, human
[1] = system: HT29 (colorectal cancer cell line); experiment: FACS uptake of BODIPY FL conjugates (Example 4); settings: 200 nM, 5 min
Experimental: FIG. 4A: Conjugate compounds coupled to BODIPY FL were tested for uptake using 200 nM each conjugate and 5 minute incubation with colorectal cancer cell line HT29. Mean fluorescent intensities (MFI). 1,000 cells were sorted by FACS.
Materials and methods: The HT-29 line was originally isolated from a primary tumour in 1964 from a person. This cell line is positive for expression of N-ras and overexpression of p53 antigen. The human colon adenocarcinoma cell line HT29, is not only used to study the biology of human colon cancers, but it is receiving special interest in studies focused on food digestion and bioavailability due to the ability to express characteristics of mature intestinal cells. The application of this cell line to transport studies of drugs and food compounds is illustrated, especially when the effect of the mucus layer is considered or used as co-culture in combination with Caco-2 cells. These cells have shown a high rate of glucose consumption and therefore, they require high glucose concentration in the medium. Verhoeck et al., 2015.
For these experiments, HT-29 or MEF cells were diluted on αMEM media (supplemented with 10% FBS+1% penicillin-streptomycin) to give a 250 cells/μL suspension of which 200 μL were aliquoted into each well of a 96 well plate followed by incubation for 24 hours. Next, 2 μL of 100 μM stock solutions in DMSO from the conjugates coupled to BODIPY were diluted with 998 μL of αMEM media to give a 200 nM solution. After 24 hour incubation, media was removed and 200 μL of 138 and pantothenic acid/pantothenic acid derivatives coupled to BODIPY 200 nM solutions were added and cells were incubated for 5 minutes at 37 °C. After 5 minutes, the compounds and DMSO solutions were removed and cells were washed with PBS. Then, 100 μL of TrypLE trypsin were added to each well and incubated for 5 minutes at 37 °C. After this time, 100 μL of DMEM media were added to the wells and samples were sorted through FACS biosort. The studies were completed in duplicated wells.

Jurkat cells = experiment: FACS uptake of BODIPY FL conjugates in Jurkat cells (Example 3); settings: 200 nM
Experimental: FIG. 3B: Conjugate compounds coupled to BODIPY FL were tested for uptake using 200 nM each conjugate and 5 minute incubation with immortalized T lymphocyte cell line, Jurkat cells. Mean fluorescent intensities (MFI). 1,000 cells sorted by FACS. Bars represent mean±SD. Results represent a single experiment done in duplicate.
Materials and methods: Jurkat cells have been previously shown to be defective in the expression of two lipid phosphatases, PTEN (phosphatase and tensin homologue) and SHIP (SH2-domain-containing inositol polyphosphate 5′ phosphatase). The biological implications of SHIP deficiency in T cells remain under evaluation, but the loss of PTEN leads to activation of the phosphatidylinositol 3-kinase (PI3K)-signalling pathway. See Abraham and Weiss, 2004. This activation of PI3K protein is also on NZM40 melanoma cell line, and represents a key mutation for its sustained proliferation. See Silva et al., 2017. For these experiments, Jurkat cells were diluted on RPMI media (supplemented with 10% FBS+1% penicillin-streptomycin) to afford 400 cells/μL. 2 μL of 100 μM stock solutions in DMSO from 138 and pantothenic acid/pantothenic acid derivatives coupled to BODIPY were diluted with 998 μL of RPMI media (supplemented with 10% FBS+1% penicillin-streptomycin) to afford 200 nM solution. 100,000 cells were dispensed to Eppendorf tubes, centrifuged for 1.5 min at 5000 rcf and the supernatant was removed. The cells then were incubated with 500 μL of solutions at 200 nM for 4.5 min and 37 °C. After the incubation time, cells were centrifuged for 1.5 minutes at 5000 rcf. Supernatant was removed and cell pellet re-suspended in 200 μL fresh RPMI media, transferred to 96 well-plate and run on FACS machine, approximately 1,000 cells analysed.

neutrophils = experiment: FACS uptake of BODIPY FL conjugates in PBMCs (Example 3); settings: 135 nM
Experimental: (§1) FIG. 3A. Conjugate compounds coupled to BODIPY FL were tested for uptake using 135 nM each conjugate and 4.5 minute incubation with human lymphocytes, monocytes and neutrophils (from a healthy donor). Mean fluorescent intensities (MFI). 1,000 cells (lymphocytes), 500 cells (monocytes) and 250 cells (neutrophils) sorted by FACS. Bars represent mean±SD. Results represent a single experiment done in duplicate.
(§2) In addition to this, 25 mL of full blood was collected from a healthy donor in lithium-heparin vacutainer. Peripheral blood mononuclear cells (PBMCs) were collected after ficoll separation. PBMCs then were centrifuge at 400 g for 5 minutes. Supernatant was removed from the cells and resuspended with 20 mL of HBSS with a final concentration of 417,500 cells/mL. Then, 479 μL of cells suspension were poured into Eppendorf tube and 1000 μL of 200 nM drug solution in HBSS were added to afford 135 nM final drug concentration, incubated at 37 °C for 5 minutes. After incubation time, PBMCs were centrifuged at 400 g for 5 minutes. Supernatant was removed from the cells and pellet resuspended with 200 μL of HBSS. Suspension was transferred to 96 well-plate and run on FACS machine, approximately 1,000-250 cells analysed. The FACS results output represented the mean of the fluorescence intensities (in arbitrary units) measured for cells sorted in every sample.

monocytes = experiment: as above; settings: 135 nM
Experimental: as §1, §2

[2] = system: NZM40 (NRAS Q16H) melanoma cells; experiment: FACS uptake of BODIPY FL conjugates, 200 nM, 5 min (Example 2)
Experimental: FIG. 2. Conjugate compounds coupled to BODIPY FL were tested for uptake using 200 nM each conjugate and 5 minute incubation with melanoma cell line NZM11 (BRAF V600E mutant metastatic melanoma), melanoma cell line NZM40 (NRAS Q16H mutant metastatic melanoma) and melanoma cell line NZM9 (BRAF and NRAS wildtype metastatic melanoma). Mean fluorescent intensities (MFI). 2,000 cells (NZM11), 1,000 cells (NZM40) and 500-1,000 cells (NZM9). Cells were sorted by FACS. Bars represent mean±SD. Results were from a single experiment done in triplicate.
NZM40 is an adherent cell line which was originally derived from a metastatic melanoma from a patient, in 2004. This human metastatic melanoma is identified with code CBA-1381 from Cell bank Australia. […] Ras is a superfamily of proteins implicated in cell growth, survival and differentiation. NRAS (neuroblastoma rat sarcoma) was the first oncogene recognized in melanoma and mutations in NRAS account for 20% of all melanomas. NRAS mutations primarily occur at position 61 and involve amino acid change from glutamine (Q) to arginine (R), lysine (K), leucine (L) or histidine (H). These mutations block NRAS into a GTP-bound state damaging its GTPase activity (FIG. 1). Patients are usually older (>55 years) with previous UV exposure. See Garcia-Alverez et al., 2021.
For screening, NZM11, NZM40 and NZM9 cells were suspended at […] dispensed into 96 well plates and left to settle for 48 hours. Then, 10 μL of 10 mM stock solutions in DMSO for the conjugates were diluted with HBSS to afford 400 nM solution. Next, 400 nM compounds and DMSO solutions were diluted 1:1 with MEMα media to afford 200 nM solutions. After 48 hours the media was removed from the 96 well plates and 200 μL of 200 nM conjugates solutions dispensed to each well (in triplicate) and incubated for 5 minutes at 37 °C. After 5 minutes, the media was removed and cells washed with PBS. Then, 100 μL of TrypLE trypsin (ThermoFisher Scientific) were added to each well and incubated for 5 minutes at 37 °C after which, 100 μL of MEMα media were added and samples were sorted through FACS biosort. The FACS results output were represented as the mean of the fluorescence intensities (in arbitrary units) measured for cells sorted in every sample.

## CC1=CC(C)=[N+]2C1=Cc1ccc(CCCn3cc(CCNC(=O)/C=C/NC(=O)[C@H]4OC(C)(C)OCC4(C)C)nn3)n1[B-]2(F)F [Compound 127, (E)-N-((((3-[4,4-Difluoro-5,7-dimethyl-4-bora-3a,4a-diaza-s-indacene-3-yl]propyl)-1H-1,2,3-triazol-4-yl)ethylamino)-3-oxoprop-1-enyl)-2,2,5,5-tetramethyl-1,3-dioxane-4-carboxamide]
[1]
  uptake (fluorescent intensities): moderately higher fluorescent intensities
Jurkat cells
  uptake / targeting: showed targeting
neutrophils
  targeting / fluorescence intensities: showed targeting
monocytes
  targeting / fluorescence intensities: showed targeting
[2]
  uptake (fluorescence intensities): showed selectivity

## CC1=CC(C)=[N+]2C1=Cc1ccc(CCCn3cc(CCNC(=O)/C=C\NC(=O)[C@H](O)C(C)(C)CO)nn3)n1[B-]2(F)F [Compound 128, (Z)—N-((((3-[4,4-Difluoro-5,7-dimethyl-4-bora-3a,4a-diaza-s-indacene-3-yl]propyl)-1H-1,2,3-triazol-4-yl)ethylamino)-3-oxoprop-1-enyl)-2,4-dihydroxy-3,3-dimethylbutanamide]
Jurkat cells
  uptake / targeting: showed targeting
neutrophils
  targeting / fluorescence intensities: significant intensities
monocytes
  targeting / fluorescence intensities: significant intensities
[2]
  uptake (fluorescence intensities): showed selectivity

Reference: patent US20260364186A1, “Chemical Conjugates, Compositions, and Methods of Preparation and Use Thereof” (Transfection Holdings Limited, priority 2022, published 2026)
